Patent US10231954B2, “Neurodegenerative therapies” (LYTIX BIOPHARMA AS, priority 2014, dated 2019)

How the values were obtained:
Assay type in all cases: biochemical
[1] = molecular target: T1, p38d MAPK (Homo sapiens, UniProt O15264); assay: Kinase profiling p38d MAPK; conditions: for residual kinase activity, p38d MAPK: 100 micromolar inhibitor concentration, 100 is no change
T1 sequence (O15264 1-365): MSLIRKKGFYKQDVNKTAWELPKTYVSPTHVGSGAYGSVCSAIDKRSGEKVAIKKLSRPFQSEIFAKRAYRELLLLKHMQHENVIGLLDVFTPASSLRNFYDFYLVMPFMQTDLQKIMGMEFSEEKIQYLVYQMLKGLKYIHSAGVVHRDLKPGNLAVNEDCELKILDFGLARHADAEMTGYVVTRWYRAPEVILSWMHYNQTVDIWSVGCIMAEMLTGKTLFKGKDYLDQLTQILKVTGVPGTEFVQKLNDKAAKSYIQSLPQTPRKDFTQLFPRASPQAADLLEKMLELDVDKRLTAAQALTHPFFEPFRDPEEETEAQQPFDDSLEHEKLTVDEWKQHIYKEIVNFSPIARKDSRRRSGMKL
From the text: (§1) Any value less that 25 is considered to be highly significant inhibition.

[2] = molecular target: MKK2 (Homo sapiens, UniProt P36507); assay: Kinase profiling MKK2; conditions: for residual kinase activity, MKK2: 100 micromolar inhibitor concentration, 100 is no change
From the text: as §1

[3] = system: VEG-FR; assay: Kinase profiling VEG-FR; conditions: 100 micromolar inhibitor concentration; 100 is no change
From the text: as §1

[4] = molecular target: Lck (Homo sapiens, UniProt P06239); assay: Kinase profiling Lck; conditions: read-out: residual kinase activity, Lck
From the text: as §1

[5] = molecular target: JNK3 (Homo sapiens, UniProt P53779); assay: Kinase profiling JNK3; conditions: for residual kinase activity, JNK3: 100 micromolar inhibitor concentration, 100 is no change
From the text: as §1

[6] = molecular target: T2, PKCz (Homo sapiens, UniProt Q05513); assay: Kinase profiling PKCz; conditions: for residual kinase activity, PKCz: 100 micromolar inhibitor concentration, 100 is no change
T2 sequence (Q05513 1-592): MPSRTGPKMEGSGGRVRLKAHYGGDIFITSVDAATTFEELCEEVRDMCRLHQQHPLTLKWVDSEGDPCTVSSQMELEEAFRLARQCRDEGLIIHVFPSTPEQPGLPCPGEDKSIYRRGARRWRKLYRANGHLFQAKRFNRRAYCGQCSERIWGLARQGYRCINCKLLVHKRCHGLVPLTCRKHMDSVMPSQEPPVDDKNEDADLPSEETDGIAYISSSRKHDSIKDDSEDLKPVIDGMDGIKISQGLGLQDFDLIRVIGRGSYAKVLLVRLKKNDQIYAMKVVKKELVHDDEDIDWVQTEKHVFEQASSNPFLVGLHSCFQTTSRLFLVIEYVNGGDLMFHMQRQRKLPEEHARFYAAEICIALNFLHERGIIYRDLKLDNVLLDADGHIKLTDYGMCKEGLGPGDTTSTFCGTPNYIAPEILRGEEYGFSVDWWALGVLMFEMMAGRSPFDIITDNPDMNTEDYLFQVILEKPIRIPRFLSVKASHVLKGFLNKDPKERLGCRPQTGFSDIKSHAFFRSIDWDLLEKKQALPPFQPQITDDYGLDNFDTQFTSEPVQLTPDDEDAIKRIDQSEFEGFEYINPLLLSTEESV
From the text: as §1

[7] = molecular target: T3, SGK1 (Homo sapiens, UniProt O00141); assay: Kinase profiling SGK1; conditions: for residual kinase activity, SGK1: 100 micromolar inhibitor concentration, 100 is no change
T3 sequence (O00141 1-431): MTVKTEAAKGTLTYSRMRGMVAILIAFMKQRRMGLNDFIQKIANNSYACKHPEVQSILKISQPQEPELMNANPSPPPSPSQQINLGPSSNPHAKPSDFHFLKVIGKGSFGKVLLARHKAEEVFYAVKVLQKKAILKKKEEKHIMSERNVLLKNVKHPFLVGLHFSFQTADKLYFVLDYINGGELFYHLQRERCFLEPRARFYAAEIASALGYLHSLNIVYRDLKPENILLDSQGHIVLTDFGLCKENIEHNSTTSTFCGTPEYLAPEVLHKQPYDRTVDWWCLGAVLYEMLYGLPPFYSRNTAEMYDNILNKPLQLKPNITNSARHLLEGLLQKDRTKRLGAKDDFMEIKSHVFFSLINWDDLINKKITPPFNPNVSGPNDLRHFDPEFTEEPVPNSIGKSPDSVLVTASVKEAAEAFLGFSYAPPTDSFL
From the text: as §1

[8] = molecular target: BTK (Homo sapiens, UniProt Q06187); assay: Kinase profiling BTK; conditions: read-out: residual kinase activity, BTK
From the text: as §1

[9] = molecular target: ERK1 (Homo sapiens, UniProt P27361); assay: Kinase profiling ERK1; conditions: for residual kinase activity, ERK1: 100 micromolar inhibitor concentration, 100 is no change
From the text: as §1

[10] = molecular target: T4, MKK6 (Homo sapiens, UniProt P52564); assay: Kinase profiling MKK6; conditions: for residual kinase activity, MKK6: 100 micromolar inhibitor concentration, 100 is no change
T4 sequence (P52564 1-334): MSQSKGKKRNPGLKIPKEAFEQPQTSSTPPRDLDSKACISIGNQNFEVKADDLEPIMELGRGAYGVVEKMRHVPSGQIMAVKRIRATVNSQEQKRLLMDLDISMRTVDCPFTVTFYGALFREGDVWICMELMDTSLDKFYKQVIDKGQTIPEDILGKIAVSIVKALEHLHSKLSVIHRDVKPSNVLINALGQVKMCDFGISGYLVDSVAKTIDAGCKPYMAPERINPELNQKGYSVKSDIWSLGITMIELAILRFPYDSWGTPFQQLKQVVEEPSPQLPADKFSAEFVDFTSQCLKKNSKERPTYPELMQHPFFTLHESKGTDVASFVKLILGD
From the text: as §1

[11] = molecular target: JNK2 (Homo sapiens, UniProt P45984); assay: Kinase profiling JNK2; conditions: for residual kinase activity, JNK2: 100 micromolar inhibitor concentration, 100 is no change
From the text: as §1

[12] = molecular target: IGF-1R (Homo sapiens, UniProt P08069); assay: Kinase profiling IGF-1R; conditions: read-out: residual kinase activity, IGF-1R
From the text: as §1

[13] = molecular target: MARK3 (Homo sapiens, UniProt P27448); assay: Kinase profiling MARK3; conditions: read-out: residual kinase activity, MARK3
From the text: as §1

[14] = molecular target: PKBb (Homo sapiens, UniProt P31751); assay: Kinase profiling PKBb; conditions: for residual kinase activity, PKBb: 100 micromolar inhibitor concentration, 100 is no change
From the text: as §1

[15] = molecular target: PRK2 (Homo sapiens, UniProt Q16513); assay: Kinase profiling PRK2; conditions: for residual kinase activity, PRK2: 100 micromolar inhibitor concentration, 100 is no change
From the text: as §1

[16] = molecular target: S6K1 (Homo sapiens, UniProt P23443); assay: Kinase profiling S6K1; conditions: for residual kinase activity, S6K1: 100 micromolar inhibitor concentration, 100 is no change
From the text: as §1

[17] = molecular target: MLK3 (Homo sapiens, UniProt Q16584); assay: Kinase profiling MLK3; conditions: read-out: residual kinase activity, MLK3
From the text: as §1

[18] = molecular target: HIPK2 (Homo sapiens, UniProt Q9H2X6); assay: Kinase profiling HIPK2; conditions: read-out: residual kinase activity, HIPK2
From the text: as §1

[19] = molecular target: SmMLCK (Homo sapiens, UniProt Q15746); assay: Kinase profiling SmMLCK; conditions: 100 micromolar inhibitor concentration; 100 is no change; read-out: residual kinase activity, SmMLCK

JNK3, sequence (P53779 whole entry, species assumed): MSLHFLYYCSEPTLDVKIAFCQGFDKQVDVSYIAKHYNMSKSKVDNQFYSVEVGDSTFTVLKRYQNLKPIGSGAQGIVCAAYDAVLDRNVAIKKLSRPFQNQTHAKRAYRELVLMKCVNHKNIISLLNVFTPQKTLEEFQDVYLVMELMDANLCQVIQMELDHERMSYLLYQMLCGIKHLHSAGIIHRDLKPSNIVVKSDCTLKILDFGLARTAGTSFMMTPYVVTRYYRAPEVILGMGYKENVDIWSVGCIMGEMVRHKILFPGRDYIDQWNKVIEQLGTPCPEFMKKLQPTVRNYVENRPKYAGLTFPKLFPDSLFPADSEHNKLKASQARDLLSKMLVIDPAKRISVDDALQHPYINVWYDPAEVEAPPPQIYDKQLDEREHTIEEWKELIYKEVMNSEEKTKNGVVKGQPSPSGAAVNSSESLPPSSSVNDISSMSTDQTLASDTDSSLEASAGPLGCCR
PRK2, sequence (Q16513 whole entry, species assumed): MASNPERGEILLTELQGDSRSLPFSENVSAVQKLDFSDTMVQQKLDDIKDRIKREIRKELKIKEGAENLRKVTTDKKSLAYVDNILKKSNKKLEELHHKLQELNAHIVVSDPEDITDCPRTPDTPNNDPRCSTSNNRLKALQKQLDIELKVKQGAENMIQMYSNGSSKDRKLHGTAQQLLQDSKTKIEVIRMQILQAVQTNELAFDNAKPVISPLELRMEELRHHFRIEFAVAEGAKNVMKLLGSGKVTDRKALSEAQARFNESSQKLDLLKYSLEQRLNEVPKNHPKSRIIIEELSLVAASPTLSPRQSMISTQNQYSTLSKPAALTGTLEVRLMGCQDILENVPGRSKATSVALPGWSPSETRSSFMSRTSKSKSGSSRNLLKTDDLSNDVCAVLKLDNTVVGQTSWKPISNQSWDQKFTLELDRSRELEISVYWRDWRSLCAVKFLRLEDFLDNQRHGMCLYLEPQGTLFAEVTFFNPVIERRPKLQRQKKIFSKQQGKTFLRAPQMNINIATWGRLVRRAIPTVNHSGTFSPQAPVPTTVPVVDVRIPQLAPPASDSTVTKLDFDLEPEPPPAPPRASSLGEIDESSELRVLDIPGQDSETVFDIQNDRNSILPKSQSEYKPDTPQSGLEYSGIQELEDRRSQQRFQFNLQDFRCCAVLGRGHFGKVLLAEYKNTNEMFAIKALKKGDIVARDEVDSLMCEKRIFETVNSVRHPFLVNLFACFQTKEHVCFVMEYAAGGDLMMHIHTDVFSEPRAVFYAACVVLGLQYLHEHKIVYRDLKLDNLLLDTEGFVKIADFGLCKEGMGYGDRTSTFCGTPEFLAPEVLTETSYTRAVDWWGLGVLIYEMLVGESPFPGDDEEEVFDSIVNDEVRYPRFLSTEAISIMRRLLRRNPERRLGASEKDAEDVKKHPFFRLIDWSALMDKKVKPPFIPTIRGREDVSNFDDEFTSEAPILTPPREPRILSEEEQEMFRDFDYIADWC
MKK2, sequence (P36507 whole entry, species assumed): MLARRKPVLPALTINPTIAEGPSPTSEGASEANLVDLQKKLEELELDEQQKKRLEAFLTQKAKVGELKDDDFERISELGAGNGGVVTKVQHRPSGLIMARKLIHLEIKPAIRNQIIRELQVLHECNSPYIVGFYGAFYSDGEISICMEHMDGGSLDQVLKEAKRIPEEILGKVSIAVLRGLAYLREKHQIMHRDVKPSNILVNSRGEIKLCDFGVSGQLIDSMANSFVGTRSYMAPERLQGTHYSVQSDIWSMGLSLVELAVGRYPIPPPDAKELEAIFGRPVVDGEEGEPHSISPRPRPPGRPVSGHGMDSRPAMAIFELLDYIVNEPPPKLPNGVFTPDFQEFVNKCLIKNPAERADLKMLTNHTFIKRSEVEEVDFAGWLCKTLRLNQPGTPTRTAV
ERK1, sequence (P27361 whole entry, species assumed): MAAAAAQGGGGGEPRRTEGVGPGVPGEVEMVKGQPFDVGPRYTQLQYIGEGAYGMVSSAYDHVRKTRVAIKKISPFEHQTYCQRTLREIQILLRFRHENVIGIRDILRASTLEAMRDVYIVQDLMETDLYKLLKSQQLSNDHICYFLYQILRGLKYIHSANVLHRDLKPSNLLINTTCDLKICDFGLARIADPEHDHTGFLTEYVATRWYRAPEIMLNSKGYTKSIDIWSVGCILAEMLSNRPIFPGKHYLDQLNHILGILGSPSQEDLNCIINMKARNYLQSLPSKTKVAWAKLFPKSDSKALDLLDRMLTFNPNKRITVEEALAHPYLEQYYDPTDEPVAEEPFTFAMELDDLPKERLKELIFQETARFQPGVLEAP
S6K1, sequence (P23443 whole entry, species assumed): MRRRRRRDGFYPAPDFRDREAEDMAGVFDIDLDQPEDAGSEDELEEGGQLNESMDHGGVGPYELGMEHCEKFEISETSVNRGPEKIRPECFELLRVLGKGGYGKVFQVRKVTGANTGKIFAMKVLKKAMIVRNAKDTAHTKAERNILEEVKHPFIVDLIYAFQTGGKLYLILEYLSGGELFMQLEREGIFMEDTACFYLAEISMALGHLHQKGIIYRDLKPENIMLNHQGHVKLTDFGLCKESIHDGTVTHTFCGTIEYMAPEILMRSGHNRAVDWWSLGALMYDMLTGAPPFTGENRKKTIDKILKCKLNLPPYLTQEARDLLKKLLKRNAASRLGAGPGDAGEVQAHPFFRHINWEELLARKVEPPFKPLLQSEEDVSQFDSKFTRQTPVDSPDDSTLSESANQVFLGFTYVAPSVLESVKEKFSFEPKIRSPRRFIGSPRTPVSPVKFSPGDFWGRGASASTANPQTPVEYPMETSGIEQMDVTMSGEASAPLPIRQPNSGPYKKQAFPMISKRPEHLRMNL
JNK2, sequence (P45984 whole entry, species assumed): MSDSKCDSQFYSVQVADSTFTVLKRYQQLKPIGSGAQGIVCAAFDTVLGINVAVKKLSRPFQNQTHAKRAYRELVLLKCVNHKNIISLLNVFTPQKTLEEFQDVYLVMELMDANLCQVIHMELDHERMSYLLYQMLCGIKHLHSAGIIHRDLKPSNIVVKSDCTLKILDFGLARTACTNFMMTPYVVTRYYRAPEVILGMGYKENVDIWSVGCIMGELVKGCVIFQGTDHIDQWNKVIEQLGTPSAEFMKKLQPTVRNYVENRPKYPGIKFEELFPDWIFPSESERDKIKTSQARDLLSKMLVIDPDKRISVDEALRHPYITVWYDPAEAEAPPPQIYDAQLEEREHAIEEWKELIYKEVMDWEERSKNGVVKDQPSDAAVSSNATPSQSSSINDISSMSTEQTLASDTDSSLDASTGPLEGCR
PKBb, sequence (P31751 whole entry): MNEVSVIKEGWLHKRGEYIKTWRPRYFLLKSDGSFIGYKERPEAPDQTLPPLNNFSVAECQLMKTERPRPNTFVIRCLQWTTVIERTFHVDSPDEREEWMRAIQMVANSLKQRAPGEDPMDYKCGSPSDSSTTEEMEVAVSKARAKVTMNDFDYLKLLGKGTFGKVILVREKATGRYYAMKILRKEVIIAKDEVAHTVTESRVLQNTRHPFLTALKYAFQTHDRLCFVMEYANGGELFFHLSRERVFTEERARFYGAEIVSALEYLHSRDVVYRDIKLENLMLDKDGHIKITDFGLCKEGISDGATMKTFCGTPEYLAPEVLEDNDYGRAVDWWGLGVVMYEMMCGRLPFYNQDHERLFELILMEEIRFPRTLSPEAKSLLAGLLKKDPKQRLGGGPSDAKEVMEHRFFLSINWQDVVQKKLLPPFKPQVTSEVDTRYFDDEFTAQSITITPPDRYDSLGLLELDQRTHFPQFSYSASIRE
MLK3, sequence (Q16584 whole entry, species assumed): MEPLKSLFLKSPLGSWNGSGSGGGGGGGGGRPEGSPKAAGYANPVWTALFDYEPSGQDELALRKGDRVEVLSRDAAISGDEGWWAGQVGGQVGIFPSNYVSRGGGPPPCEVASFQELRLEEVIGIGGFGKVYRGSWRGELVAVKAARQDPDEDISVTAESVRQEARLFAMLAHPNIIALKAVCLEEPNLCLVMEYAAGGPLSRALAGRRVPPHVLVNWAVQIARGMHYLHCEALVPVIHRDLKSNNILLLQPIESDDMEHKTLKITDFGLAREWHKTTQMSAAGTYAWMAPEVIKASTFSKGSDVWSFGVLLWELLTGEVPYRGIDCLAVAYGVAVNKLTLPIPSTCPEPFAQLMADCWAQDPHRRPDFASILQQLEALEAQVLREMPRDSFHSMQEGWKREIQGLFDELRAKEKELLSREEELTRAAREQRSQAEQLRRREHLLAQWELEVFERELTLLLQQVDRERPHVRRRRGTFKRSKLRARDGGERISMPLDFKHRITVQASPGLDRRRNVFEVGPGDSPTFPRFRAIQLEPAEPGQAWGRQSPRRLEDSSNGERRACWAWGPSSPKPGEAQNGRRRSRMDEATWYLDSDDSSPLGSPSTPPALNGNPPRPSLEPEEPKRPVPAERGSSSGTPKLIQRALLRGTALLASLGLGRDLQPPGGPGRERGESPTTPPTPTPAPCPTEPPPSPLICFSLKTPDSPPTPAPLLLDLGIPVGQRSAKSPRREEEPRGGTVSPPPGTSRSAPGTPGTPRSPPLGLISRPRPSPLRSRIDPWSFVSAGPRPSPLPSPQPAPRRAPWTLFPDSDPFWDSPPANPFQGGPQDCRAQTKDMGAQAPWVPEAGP
Lck, sequence (P06239 whole entry, species assumed): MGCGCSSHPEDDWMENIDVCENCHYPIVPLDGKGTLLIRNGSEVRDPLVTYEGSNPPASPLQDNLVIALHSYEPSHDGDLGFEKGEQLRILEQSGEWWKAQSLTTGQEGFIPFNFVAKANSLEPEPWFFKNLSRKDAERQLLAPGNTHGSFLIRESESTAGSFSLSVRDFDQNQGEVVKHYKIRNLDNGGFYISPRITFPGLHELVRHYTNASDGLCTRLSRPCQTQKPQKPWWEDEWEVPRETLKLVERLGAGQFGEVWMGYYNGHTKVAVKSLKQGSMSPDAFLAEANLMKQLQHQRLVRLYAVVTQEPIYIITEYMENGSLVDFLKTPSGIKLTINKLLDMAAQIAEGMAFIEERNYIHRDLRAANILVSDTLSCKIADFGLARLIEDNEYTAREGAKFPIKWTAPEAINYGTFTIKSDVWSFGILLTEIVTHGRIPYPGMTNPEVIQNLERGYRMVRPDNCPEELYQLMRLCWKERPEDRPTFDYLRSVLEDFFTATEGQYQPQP

SMILES	residual kinase activity, p38d MAPK [1]	residual kinase activity, MKK2 [2]	residual kinase activity, JNK3 [5]	residual kinase activity, PKCz [6]	residual kinase activity, SGK1 [7]	residual kinase activity, ERK1 [9]	residual kinase activity, MKK6 [10]	residual kinase activity, JNK2 [11]	residual kinase activity, PKBb [14]	residual kinase activity, PRK2 [15]	residual kinase activity, S6K1 [16]	other results
CC(=O)Nc1nc2cc(O)ccc2s1 [Compound 01-66, N-(5-hydroxybenzo[d]thiazol-2-yl)acetamide]												remaining activity at 100 µM ([1]; read-out: residual kinase activity, p38d MAPK): 70%; remaining activity at 100 µM ([2]; read-out: residual kinase activity, MKK2): 42%; residual kinase activity, VEG-FR [3]: 24; remaining activity at 100 µM [4]: 69%; remaining activity at 100 µM ([5]; read-out: residual kinase activity, JNK3): 37%; remaining activity at 100 µM ([6]; read-out: residual kinase activity, PKCz): 98%; remaining activity at 100 µM ([7]; read-out: residual kinase activity, SGK1): 77%; remaining activity at 100 µM [8]: 67%; remaining activity at 100 µM ([9]; read-out: residual kinase activity, ERK1): 61%; remaining activity at 100 µM ([10]; read-out: residual kinase activity, MKK6): 70%; remaining activity at 100 µM ([11]; read-out: residual kinase activity, JNK2): 63%; remaining activity at 100 µM [12]: 26%; remaining activity at 100 µM [13]: 34%; remaining activity at 100 µM ([14]; read-out: residual kinase activity, PKBb): 55%; remaining activity at 100 µM ([15]; read-out: residual kinase activity, PRK2): 67%; remaining activity at 100 µM ([16]; read-out: residual kinase activity, S6K1): 54%; remaining activity at 100 µM [17]: 41%; remaining activity at 100 µM [18]: 20%; remaining activity at 100 µM [19]: 58%
CC(=O)Nc1cccc(C(=O)Nc2nc3ccc(O)cc3s2)c1 [Compound 03-58]	75	86	51	84	41	84	103	99	80	36	9	
CC(=O)NC(C)C(=O)Nc1nc2ccc(C(F)(F)F)cc2s1 (stereo not drawn) [Compound 03-80]	102	75	79	75	55	94	115	87	93	79	97	
CC(=O)Nc1ccccc1C(=O)Nc1nc2ccc(O)cc2s1 [Compound 08-39]	67	78	53	38	35	18	96	93	4	42	12	
COc1ccc2sc(NC(=O)c3ccc(NC(C)=O)cc3)nc2c1 [MS:LY-2-77]	98	95	88	107	101	87	111	99	44	92	94	
COc1ccc2sc(NC(=O)c3cccc(NC(C)=O)c3)nc2c1 [MS:LY-2-85]	72	80	62	101	75	86	99	100	22	66	50	
CC(=O)Nc1ccc(C(=O)Nc2nc3cc(O)ccc3s2)cc1 [MS:LY-2-87]	75	73	66	83	43	70	107	105	18	67	39	
CC(=O)Nc1cccc(C(=O)Nc2nc3cc(O)ccc3s2)c1 [MS:LY-2-89]	70	47	36	80	28	54	98	93	7	44	14	
